# Where two headings read alike, the source gives them in different places.
# Tests used:
# [1] = tested on: total α-tubulin (α-Tub) levels in QBI293 cells; assay: QBI293 cell assay: total α-tubulin ELISA; assay type: cell-based
# Summary of the method: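 AcTub and α-Tub were quantified by ELISA in whole-cell extracts normalized by BCA protein and expressed relative to vehicle. AcTub changes were also scaled to a 100 nM reference stabilizer control.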
# [2] = tested on: AcTub levels in OA-treated primary mouse cortical neurons; assay: Okadaic acid (OA) assay, AcTub ELISA in primary mouse cortical neurons; assay type: cell-based; conditions: OA 15 nM, 8 h, compound 1 and 10 μM
# Procedure: To further evaluate the activity of Class I alkyne derivatives and hybrid compounds, several compounds were also assessed for their ability to compensate for MT deficits in primary neuron cultures that were treated with the phosphatase inhibitor, okadaic acid (OA). As previously described,[11] treatment of rodent neurons with OA results in tau hyperphosphorylation and MT collapse that presumably results, at least in part, from tau disengagement from MTs. Co-treatment of neurons with Class I TPDs, such as 1, along with OA prevents this MT collapse, with a resulting normalization of MT structure and neuronal processes which can be observed upon visual inspection of the neurons or through an assessment of neuronal AcTub levels, while Class II TPDs are generally unable to provide meaningful compensation of MT deficits, especially when tested at higher (i.e., 10 μM) compound concentration.[11],[12]
# Figure 4 ELISA determination of AcTub levels in homogenates from primary rat cortical neurons treated with either vehicle, or OA (15 nM) in the presence of vehicle or TPD 1, 8, 9 (A); and primary mouse cortical neurons treated with vehicle, or OA (15 nM) in the presence of vehicle or TPD 1, 24, 45, 46, 53, 54 (B). Error bars represent SEM, with ***, p < 0.001 relative to vehicle treatment in the absence of OA as determined by one-way ANOVA.
# Compound-induced changes in acetylated-tubulin and α-tubulin in QBI293 cells or primary mouse or rat neurons were as previously described.[11],[12] For compound testing, QBI293 cells were plated at a density of 2 × 10^5 cells/well in 12-well plates. The plated cells were incubated overnight, after which the medium was aspirated and fresh medium containing vehicle (0.25–0.3% DMSO) or test compound was added. Test compounds were prepared as 4–20 mM stock solutions in 100% DMSO, and these were diluted in culture medium prior to addition to the QBI293 cells. After 4 h incubation, whole-cell extracts were prepared from the QBI293 cells as described[11] and the supernatant fraction from each sample was assessed for protein content by bicinchoninic acid (BCA) assay. The amount of acetyl-tubulin (AcTub) and α-tubulin (αTub) within the cell extract samples was quantified using specific enzyme-linked immunosorbent assays (ELISA), as previously described.[11] Acetyl-tubulin levels were determined in a similar manner in rat or mouse cortical neuron cultures in which embryonic dissociated cortical neurons were plated at 3 × 10^5 cells/well in poly-D-lysine-coated 12-well plates, essentially as previously described.[11] The neurons were allowed to grow for 10 days before they were treated for 8 h with 15 nM okadaic acid in the presence or absence of test compound prepared as described above, or vehicle (0.25% DMSO). Culture homogenates were prepared for the determination of AcTub levels by ELISA as previously described.[11]
# VehicleVehicleVehicleVehicle25 (1 µM)
# Figure S2. Assessment of AcTub levels in primary mouse cortical neurons treated with vehicle,
# (1 picture or pasted object on this page, not shown here)
# [3] = Plasma pharmacokinetics in CD-1 mice; assay type: in vivo, mouse; conditions: i.v. 5 mg/kg
# Procedure: Studies to determine the pharmacokinetic properties of compounds 53 and 60 were conducted at Touchstone Biosciences (Plymouth Meeting, PA). For the determination of plasma pharmacokinetics, three male CD-1 mice (2–3 months of age) were injected i.v. (tail vein) with test compound at a dose of 5 mg/kg in a solution of 10% DMSO, 40% polyethylene glycol, and 50% water, and another three male CD-1 mice received oral gavage dosing of 60 formulated as above at a dose of 20 mg/kg. Blood samples were collected from the saphenous or submandibular veins at multiple time points after dosing and collected in Greiner MiniCollect K2EDTA tubes. Compound levels in plasma were determined by LC-MS/MS, using protocols similar to those previously described.[16],[22]
compound,measurement,setting,value
"C[C@@H](Nc1c(-c2c(F)cc(C#CCCO)cc2F)c(Cl)nc2ncnn12)C(C)(C)C [Compound 53, (R)-4-(4-(5-Chloro-7-((3,3-dimethylbutan-2-yl)amino)-[1,2,4]triazolo[1,5-a]pyrimidin-6-yl)-3,5-difluorophenyl)but-3-yn-1-ol]",fold induction at 1 µM,"[1]; 4 h, 1 uM compound, read-out: AlfaTub (1uM)",0.98
same,fold induction at 10 µM,"[1]; 4 h, 10 uM compound, read-out: AlfaTub (10 uM)",0.98
same,fold induction at 1 µM,"[1]; 4 h incubation, 1 μM, read-out: α-Tub 1 μM, fold-change compared to vehicle (DMSO)-treated cells",0.98 ± 0.04
same,fold induction at 10 µM,"[1]; 4 h incubation, 10 μM, read-out: α-Tub 10 μM, fold-change compared to vehicle (DMSO)-treated cells",0.98 ± 0.21
same,prevention/correction of OA-induced MT collapse (AcTub levels),[2],can prevent the OA-induced MT collapse
same,half-life (T1/2),[3],relatively prolonged half-life

# — paper PMC9841533, “Microtubule-Stabilizing 1,2,4-Triazolo[1,5-a]pyrimidines as Candidate Therapeutics for Neurodegenerative Disease: Matched Molecular Pair Analyses and Computational Studies Reveal New Structure–Activity Insights” (Journal of Medicinal Chemistry, 2022)
